For 38 compounds, IC50 results are on record in patent US8383683B2, “Pharmaceutical use of substituted amides” (High Point Pharmaceuticals, LLC, priority 2007, dated 2013).

As usually defined, the pIC50 is the IC50 on a negative log10 scale, so that one unit is a factor of ten.

pIC50: −log10 of the molar value.

11βHSD1, sequence (P28845 whole entry): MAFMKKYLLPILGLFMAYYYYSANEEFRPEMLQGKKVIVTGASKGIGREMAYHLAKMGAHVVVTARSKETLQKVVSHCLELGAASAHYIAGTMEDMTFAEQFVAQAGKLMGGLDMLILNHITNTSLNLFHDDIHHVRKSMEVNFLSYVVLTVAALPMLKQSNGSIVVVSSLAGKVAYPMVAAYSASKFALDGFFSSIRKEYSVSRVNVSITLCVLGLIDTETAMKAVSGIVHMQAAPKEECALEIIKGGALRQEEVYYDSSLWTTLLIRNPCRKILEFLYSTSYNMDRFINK

This test addresses 11βHSD1 (Homo sapiens, UniProt P28845). In words: 11βHSD1 enzyme assay (SPA, 3H-cortisone to 3H-cortisol). The class given is biochemical. Details: An extract of yeast transformed with h-11βHSD1 (Hutt et al., FEBS Lett., 441, 25 (1998)) was used as the source of enzyme; made in house. As to conditions: extract of yeast transformed with h-11βHSD1; 120 nM 3H-cortisone, 4 mM β-NADPH, 60 min at 30° C. The protocol:
Pharmacological Methods 11βHSD1 Enzyme Assay Materials
^3H-cortisone and anti-rabbit Ig coated scintillation proximity assay (SPA) beads were purchased from Amersham Pharmacia Biotech, β-NADPH was from Sigma and rabbit anti-cortisol antibodies were from Fitzgerald. An extract of yeast transformed with h-11βHSD1 (Hutt et al., FEBS Lett., 441, 25 (1998)) was used as the source of enzyme. The test compounds were dissolved in DMSO (10 mM). All dilutions were performed in a buffer containing 50 mM TRIS-HCl (Sigma Chemical Co), 4 mM EDTA (Sigma Chemical Co), 0.1% BSA (Sigma Chemical Co), 0.01% Tween-20 (Sigma Chemical Co) and 0.005% bacitracin (Novo Nordisk NS), pH=7.4. Optiplate 96 wells plates were supplied by Packard. The amount of ^3H-cortisol bound to the SPA beads was measured on TopCount NXT, Packard.
h-11βHSD1, 120 nM ^3H-cortisone, 4 mM β-NADPH, antibody (1:200), serial dilutions of test compound and SPA particles (2 mg/well) were added to the wells. The reaction was initiated by mixing the different components and was allowed to proceed under shaking for 60 min at 30° C. The reaction was stopped be the addition of 10 fold excess of a stopping buffer containing 500 μM carbenoxolone and 1 μM cortisone. Data was analysed using GraphPad Prism software.
Consider `O=C(CCCOc1ccc(Cl)cc1Cl)N[C@@]12C[C@@H]3C[C@@H](C[C@@](O)(C3)C1)C2` [Example 1-1, 4-(2,4-Dichloro-phenoxy)-N-((1R,3S,5R,7S)-3-hydroxy-adamantan-1-yl)-butyramide], for which the pIC50 was 7.57. The result for `O=C(CCCOc1ccc(Cl)cc1Cl)NC(c1ccccc1)C1CC1` (centres unmarked) [Example 1-3, N-(Cyclopropyl-phenyl-methyl)-4-(2,4-dichloro-phenoxy)-butyramide] reads 6.39. The result for `O=C(CCCOc1ccc(Cl)cc1Cl)N1CCCCC1c1ccccc1Cl` (centres unmarked) [Example 1-4, 1-[2-(2-Chloro-phenyl)-piperidin-1-yl]-4-(2,4-dichloro-phenoxy)-butan-1-one] reads 6.53; that for `O=C(CCCOc1ccc(Cl)cc1Cl)N1CCCCC1c1ccccc1` (centres unmarked) [Example 1-10, 4-(2,4-Dichloro-phenoxy)-1-(2-phenyl-piperidin-1-yl)-butan-1-one], 6.70; that for `CC1(C)[C@H]2CC[C@@H](CNC(=O)CCCOc3ccc(Cl)cc3Cl)[C@@H]1C2` [Example 1-11, 4-(2,4-Dichloro-phen-oxy)-N-((1S,2R,5S)-6,6-dimethyl-bicyclo[3.1.1]-hept-2-ylmethyl)-butyr-amide], 6.57. Compound `O=C(CCCOc1ccc(Cl)cc1Cl)N1CC2CCC(CC2)C1` [Example 1-15, 1-(3-Aza-bicyclo[3.2.2]-non-3-yl)-4-(2,4-di-chloro-phenoxy)-butan-1-one] had a pIC50 of 7.28. Compared with the last compound, the pIC50 is 0.71 log units higher. The result for `COC(=O)C1CC2CCC(C1)N2C(=O)CCCOc1ccc(Cl)cc1Cl` (centres unmarked) [Example 1-17, 8-[4-(2,4-Dichloro-phenoxy)-butyryl]-8-aza-bicyclo[3.2.1]octane-3-carboxylic acid methyl ester] reads 8.15; that for `O=C(CCCOc1ccc(Cl)cc1Cl)N(C1CC1)C1C2CC3CC1CC(O)(C3)C2` (centres unmarked) [Example 1-18, N-Cyclopropyl-4-(2,4-dichloro-phenoxy)-N-(5-hydroxy-adamantan-2-yl)-butyramide], 6.68. The same measure for `O=C(CCCOc1ccc(Cl)cc1Cl)N(C1CC1)C1C2CC3CC1CC(O)(C3)C2` (centres unmarked) [Example 1-19, N-Cyclopropyl-4-(2,4-dichloro-phenoxy)-N-(5-hydroxy-adamantan-2-yl)-butyramide]: 7.62; for `O=C(CCCOc1ccc(Cl)cc1Cl)NC12CC3CC(C1)CC(C(=O)O)(C3)C2` [Example 1-20, 3-[4-(2,4-Dichloro-phenoxy)-butyrylamino]-adamantane-1-carboxylic acid]: 7.89. The same measure for `O=C(CCCOc1ccc(Cl)cc1Cl)NC1C2CC3CC(C2)C(CO)C1C3` (centres unmarked) [Example 1-21, 4-(2,4-Dichloro-phenoxy)-N-(4-hydroxy-methyl-adamantan-2-yl)-butyramide]: 9.00. Take `O=C(CCCOc1ccc(Cl)cc1Cl)N1CC2CC3CC1CC(O)(C3)C2` (centres unmarked) [Example 1-22, 4-(2,4-Dichloro-phenoxy)-1-(1-hydroxy-4-aza-tricyclo-[4.3.1.1{3,8}]undec-4-yl)-butan-1-one]: the pIC50 is 8.22. The result for `O=C(CCCOc1ccc(Cl)cc1Cl)N1CC2CC(O)C1C2` (centres unmarked) [Example 1-23, 4-(2,4-Dichloro-phenoxy)-1-(6-hydroxy-2-aza-bicyclo[2.2.1]hept-2-yl)-butan-1-one] reads 6.82; that for `O=C(CCCOc1ccc(Cl)cc1Cl)N1CC2CC1CC2O` (centres unmarked) [Example 1-24, 4-(2,4-Dichloro-phenoxy)-1-(5-hydroxy-2-aza-bicyclo[2.2.1]hept-2-yl)-butan-1-one], 7.70.

For `O=C(CCCOc1ccc(Cl)cc1Cl)N1CC2CC(O)CC1C2` (centres unmarked) [Example 1-25, 4-(2,4-Dichloro-phenoxy)-1-(3-hydroxy-6-aza-bicyclo[3.2.1]oct-6-yl)-butan-1-one], the pIC50 is 6.73.

`CN(C(=O)CCCOc1ccc(Cl)cc1Cl)C1CCC(O)CC1` (centres unmarked) [Example 1-26, 4-(2,4-Dichloro-phenoxy)-N-(4-hydroxy-cyclohexyl)-N-methyl-butyramide] had a pIC50 of 7.68. The result for `O=C(CCCOc1ccc(Cl)cc1Cl)NC1C2CC3CC1CC(O)(C3)C2` (centres unmarked) [Example 1-27, 4-(2,4-Dichloro-phenoxy)-N-(5-hydroxy-adamantan-2-yl)-butyramide] reads 8.40.

In the case of `O=C(CCCOc1ccc(Cl)cc1Cl)NC12CC3CC(CC(CO)(C3)C1)C2` [Example 1-28, 4-(2,4-Dichloro-phenoxy)-N-(3-hydroxy-methyl-adamantan-1-yl)-butyramide], the pIC50 was 9.00. The result for `O=C(CCCOc1ccc(Cl)cc1Cl)N1CC2CCC1C2O` (centres unmarked) [Example 1-29, 4-(2,4-Dichloro-phenoxy)-1-(7-hydroxy-2-aza-bicyclo[2.2.1]hept-2-yl)-butan-1-one] reads 7.85; that for `COC(=O)C12CC3CC(CC(NC(=O)CCCOc4ccc(Cl)cc4Cl)(C3)C1)C2` [Example 1-30, 3-[4-(2,4-Dichloro-phenoxy)-butyrylamino]-adamantane-1-carboxylic acid methyl ester], 8.00; that for `O=C(CCCOc1ccc(Cl)cc1Cl)NC12CC3CC(C1)CC(C(=O)O)(C3)C2` [Example 1-31, 3-[4-(2,4-Dichloro-phenoxy)-butyrylamino]-adamantane-1-carboxylic acid], 7.96. The compound `CN(C(=O)CCCOc1ccc(Cl)cc1Cl)C1C2CC3CC1CC(O)(C3)C2` (centres unmarked) [Example 1-32, 4-(2,4-Dichloro-phenoxy)-N-(5-hydroxy-adamantan-2-yl)-N-methyl-butyramide] had a pIC50 of 8.40. `CCN(C(=O)CCCOc1ccc(Cl)cc1Cl)C1C2CC3CC1CC(O)(C3)C2` (centres unmarked) [Example 1-33, 4-(2,4-Dichloro-phenoxy)-N-ethyl-N-(5-hydroxy-adamantan-2-yl)-butyramide] showed a pIC50 of 8.15. The same measure for `CCN(C(=O)CCCOc1ccc(Cl)cc1Cl)C1C2CC3CC1CC(O)(C3)C2` (centres unmarked) [Example 1-34, 4-(2,4-Dichloro-phenoxy)-N-ethyl-N-(5-hydroxy-adamantan-2-yl)-butyramide]: 6.76; for `O=C(CCCOc1ccc(Cl)cc1Cl)N1CC2CCC(C1)C2O` (centres unmarked) [Example 1-35, 4-(2,4-Dichloro-phenoxy)-1-(8-hydroxy-3-aza-bicyclo[3.2.1]oct-3-yl)-butan-1-one]: 6.60; for `O=C(CCCOc1ccc(Cl)cc1Cl)N1CC2CCC1CC2O` (centres unmarked) [Example 1-36, 4-(2,4-Dichloro-phenoxy)-1-(5-hydroxy-2-aza-bicyclo[2.2.2]oct-2-yl)-butan-1-one]: 6.40. The result for `CN(C(=O)CCCOc1ccccc1)C1CCC(O)CC1` (centres unmarked) [Example 1-37, N-(4-Hydroxy-cyclohexyl)-N-methyl-4-phenoxy-butyramide] reads 5.74. In the case of `O=C(CCCOc1ccccc1)NC1C2CC3CC1CC(O)(C3)C2` (centres unmarked) [Example 1-39, N-(5-Hydroxy-adamantan-2-yl)-4-phenoxy-butyramide], the pIC50 is 7.30. Against the preceding compound, the pIC50 is 1.56 log units higher.

The compound `CN(C(=O)CCCOc1ccccc1)C1C2CC3CC1CC(O)(C3)C2` (centres unmarked) [Example 1-42, N-(5-Hydroxy-adamantan-2-yl)-N-methyl-4-phenoxy-butyramide] showed a pIC50 of 5.87. The same measure for `CN(C(=O)CCCOc1ccccc1)C1C2CC3CC1CC(O)(C3)C2` (centres unmarked) [Example 1-43, N-(5-Hydroxy-adamantan-2-yl)-N-methyl-4-phenoxy-butyramide]: 7.24. The result for `O=C(CCCOc1ccccc1)NC12CC3CC(CC(CO)(C3)C1)C2` [Example 1-45, N-(3-Hydroxymethyl-adamantan-1-yl)-4-phenoxy-butyramide] reads 8.05. With `O=C(CCCOc1ccccc1)N1CC2CC1CC2O` (centres unmarked) [Example 1-46, 1-(5-Hydroxy-2-aza-bicyclo[2.2.1]hept-2-yl)-4-phenoxy-butan-1-one], the pIC50 is 5.82. For `O=C(CCCOc1ccccc1)N1CC2CCC1C2O` (centres unmarked) [Example 1-48, 1-(7-Hydroxy-2-aza-bicyclo[2.2.1]hept-2-yl)-4-phenoxy-butan-1-one], the pIC50 was 5.97.

`CC(C)N(C(=O)CCCOc1ccccc1)C1C2CC3CC1CC(O)(C3)C2` (centres unmarked) [Example 1-49, N-(5-Hydroxy-adamantan-2-yl)-N-isopropyl-4-phenoxy-butyramide] gave a negative logarithm of the IC50 (pIC50) of 6.85. Compared with the last compound, the pIC50 is 0.88 log units higher.

The compound `CCN(C(=O)CCCOc1ccccc1)C1C2CC3CC1CC(O)(C3)C2` (centres unmarked) [Example 1-51, N-Ethyl-N-(5-hydroxy-adamantan-2-yl)-4-phenoxy-butyramide] showed a pIC50 of 7.21. This pIC50 is 0.36 log units higher than that of the compound before. The same measure for `COC(=O)C12CC3CC(CC(NC(=O)CCCOc4ccccc4)(C3)C1)C2` [Example 1-52, 3-(4-Phenoxy-butyryl-amino)-adamantane-1-carboxylic acid methyl ester]: 7.27. The result for `O=C(CCCOc1ccccc1)NC12CC3CC(C1)CC(C(=O)O)(C3)C2` [Example 1-53, 3-(4-Phenoxy-butyryl-amino)-adamantane-1-carboxylic acid] reads 6.71; that for `O=C(CCCOc1ccccc1)NC1C2CC3CC1CC(CO)(C3)C2` (centres unmarked) [Example 1-54, N-(5-Hydroxymethyl-adamantan-2-yl)-4-phenoxy-butyramide], 8.00.
